Measured values: patent publication US20180194762A1 (Pharmacyclics LLC, priority 2017, published 2018)

Assays:
Assay type in all cases: biochemical
Btk = biological target: T1, Btk (Homo sapiens, UniProt Q06187); assay: Btk in vitro inhibitory activity (one of Method A TR-FRET, Method B electrophoretic mobility shift, Method C radiometric filter binding); details: wild-type Btk; read-out: Btk-WT IC50
T1 construct: purified from insect cells as a full-length construct containing a N-terminal 6X-His tag; His6 (N); made in house; host or cells: insect cells (Method C)
T1 sequence (Q06187 whole entry): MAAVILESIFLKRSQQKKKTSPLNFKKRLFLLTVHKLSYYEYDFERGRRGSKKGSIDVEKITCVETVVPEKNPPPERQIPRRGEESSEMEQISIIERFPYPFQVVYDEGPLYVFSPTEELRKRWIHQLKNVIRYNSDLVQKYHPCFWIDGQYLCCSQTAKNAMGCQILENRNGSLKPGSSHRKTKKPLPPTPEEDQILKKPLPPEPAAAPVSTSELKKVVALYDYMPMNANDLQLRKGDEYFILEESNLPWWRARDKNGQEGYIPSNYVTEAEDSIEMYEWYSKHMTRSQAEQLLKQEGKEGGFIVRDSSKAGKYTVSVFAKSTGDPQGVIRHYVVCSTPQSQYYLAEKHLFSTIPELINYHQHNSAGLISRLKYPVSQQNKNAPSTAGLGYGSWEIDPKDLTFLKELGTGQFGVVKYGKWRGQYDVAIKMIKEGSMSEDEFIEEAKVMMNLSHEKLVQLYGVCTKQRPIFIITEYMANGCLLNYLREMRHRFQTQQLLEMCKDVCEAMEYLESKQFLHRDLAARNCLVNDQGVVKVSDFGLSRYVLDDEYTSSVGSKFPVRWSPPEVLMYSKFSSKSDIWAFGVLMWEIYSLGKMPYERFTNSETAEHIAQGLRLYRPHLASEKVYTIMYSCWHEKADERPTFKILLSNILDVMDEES
Outline: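 Method A: TR-FRET with 0.5 nM Btk at [ATP]=Km, EDTA-quenched, 665/615 nm ratio; Ki(app) converted to IC50. Method B: 1 nM full-length His6 human BTK, 1 μM FAM peptide, pH 7.5, mobility-shift product/sum ratio, 12-point 4-parameter fit. Method C: radiometric filter binding, 8 nM His-tagged BTK, 0.2 mg/mL poly-Glu-Tyr.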

TEC = biological target: T2, TEC (Homo sapiens, UniProt P42680); assay: Inhibition of a panel of kinases (in vitro HotSpot kinase assay, 33P-ATP, 1 μM ATP); details: HotSpot kinase assay, 1 μM ATP
T2 sequence (P42680 1-631): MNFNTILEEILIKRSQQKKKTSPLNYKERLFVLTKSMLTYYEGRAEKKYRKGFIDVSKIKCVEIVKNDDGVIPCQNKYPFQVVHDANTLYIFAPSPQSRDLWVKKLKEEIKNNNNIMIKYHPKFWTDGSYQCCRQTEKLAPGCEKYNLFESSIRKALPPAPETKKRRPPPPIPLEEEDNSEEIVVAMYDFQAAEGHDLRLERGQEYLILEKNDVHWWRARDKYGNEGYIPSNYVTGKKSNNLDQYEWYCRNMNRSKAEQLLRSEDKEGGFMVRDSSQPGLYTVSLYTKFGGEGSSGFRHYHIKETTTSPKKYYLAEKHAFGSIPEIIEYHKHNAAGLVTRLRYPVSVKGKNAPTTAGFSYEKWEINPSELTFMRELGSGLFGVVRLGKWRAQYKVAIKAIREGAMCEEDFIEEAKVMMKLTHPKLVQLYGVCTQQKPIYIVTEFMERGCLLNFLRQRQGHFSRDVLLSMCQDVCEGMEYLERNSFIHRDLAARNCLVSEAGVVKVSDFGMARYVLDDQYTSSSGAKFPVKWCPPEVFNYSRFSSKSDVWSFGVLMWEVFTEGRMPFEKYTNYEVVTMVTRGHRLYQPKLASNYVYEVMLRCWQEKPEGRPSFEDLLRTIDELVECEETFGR
Outline: (§1)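 Degree of kinase inhibition is determined in vitro using isolated enzymes, a matched substrate and radiolabelled ATP (1 μM).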

panel of kinases = biological target: T3, panel of kinases (Homo sapiens, UniProt P51813); assay: Inhibition of a panel of kinases (in vitro HotSpot kinase assay, 33P-ATP, 1 μM ATP), other kinases; details: BMX wild-type, read-out: BMX-WT IC50
T3 sequence (P51813 1-675): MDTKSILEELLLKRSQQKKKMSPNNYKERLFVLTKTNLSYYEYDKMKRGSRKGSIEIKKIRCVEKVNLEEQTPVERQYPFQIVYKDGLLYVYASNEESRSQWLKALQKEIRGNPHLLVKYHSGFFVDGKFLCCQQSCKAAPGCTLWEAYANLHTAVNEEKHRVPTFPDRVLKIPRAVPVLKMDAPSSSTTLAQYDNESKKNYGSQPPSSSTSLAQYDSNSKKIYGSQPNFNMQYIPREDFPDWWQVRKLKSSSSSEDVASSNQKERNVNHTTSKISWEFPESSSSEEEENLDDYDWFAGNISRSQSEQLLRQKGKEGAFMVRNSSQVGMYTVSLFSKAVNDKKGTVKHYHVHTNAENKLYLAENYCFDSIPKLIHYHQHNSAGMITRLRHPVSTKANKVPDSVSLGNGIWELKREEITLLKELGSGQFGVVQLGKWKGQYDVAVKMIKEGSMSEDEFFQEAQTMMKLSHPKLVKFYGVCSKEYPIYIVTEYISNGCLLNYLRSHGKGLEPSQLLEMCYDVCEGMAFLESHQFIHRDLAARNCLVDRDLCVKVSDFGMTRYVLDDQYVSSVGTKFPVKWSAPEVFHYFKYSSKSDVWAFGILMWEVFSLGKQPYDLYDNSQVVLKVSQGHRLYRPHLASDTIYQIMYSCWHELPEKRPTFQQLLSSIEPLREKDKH
Outline: as §1

| Compound | IC50 (Btk) [nM] | IC50 (TEC) [nM] | IC50 (panel of kinases) [nM] |
| --- | --- | --- | --- |
| C=CC(=O)N1CC[C@@H](Nc2n[nH]c3nccc(-c4ccnc(N5CCn6c(cc7c6CC(C)(C)C7)C5=O)c4C=O)c23)C1 [Example 286, (R)-2-(7,7-dimethyl-1-oxo-1,3,4,6,7,8-hexahydro-2H-cyclopenta[4,5]pyrrolo[1,2-a]pyrazin-2-yl)-4-(3-{[1-(prop-2-enoyl)pyrrolidin-3-yl]amino}-1H-pyrazolo[3,4-b]pyridin-4-yl)pyridine-3-carbaldehyde] | 482 | 1830 | 1510 |
| C=CC(=O)N1CCC[C@@H](Nc2n[nH]c3nccc(-c4ccc(CNC(=O)c5cc(CC(C)C)on5)c(F)c4)c23)[C@H]1C [Example 293, N-{[2-fluoro-4-(3-{[(2R,3R)-2-methyl-1-(prop-2-enoyl)piperidin-3-yl]amino}-1H-pyrazolo[3,4-b]pyridin-4-yl)phenyl]methyl}-5-(2-methylpropyl)-1,2-oxazole-3-carboxamide] | 1.76 | 59.4 | 46.1 |
| C=CC(=O)N1CC[C@@H](Nc2n[nH]c3nccc(-c4ccc(CNC(=O)c5cc(C(C)(C)O)on5)c(F)c4)c23)C1 [Example 294, N-{[2-fluoro-4-(3-{[(3R)-1-(prop-2-enoyl)pyrrolidin-3-yl]amino}-1H-pyrazolo[3,4-b]pyridin-4-yl)phenyl]methyl}-5-(2-hydroxypropan-2-yl)-1,2-oxazole-3-carboxamide] | 1.45 | 118 | 90 |
| C=CC(=O)N1CC[C@@H](Nc2n[nH]c3nccc(-c4ccc(CNC(=O)c5coc(C(C)(C)C)n5)c(F)c4)c23)C1 [Example 295, 2-tert-butyl-N-{[2-fluoro-4-(3-{[(3R)-1-(prop-2-enoyl)pyrrolidin-3-yl]amino}-1H-pyrazolo[3,4-b]pyridin-4-yl)phenyl]methyl}-1,3-oxazole-4-carboxamide] | 0.171 | 45.5 | 107 |
| CN(C)C(=O)N1CC[C@@H](Nc2n[nH]c3nccc(-c4ccc(CNC(=O)c5coc(C(C)(C)C)n5)c(F)c4)c23)C1 [Example 296, 2-tert-butyl-N-{[4-(3-{[(3R)-1-(dimethylcarbamoyl)pyrroli-din-3-yl]amino}-1H-pyrazolo[3,4-b]pyridin-4-yl)-2-fluorophenyl]methyl}-1,3-oxazole-4-carboxamide] | 8.97 | 1650 | 4690 |
| C=CC(=O)N1CC[C@@H](Nc2n[nH]c3nccc(-c4ccnc(N5CCn6c(cc7c6CC(C)(C)C7)C5=O)c4CO)c23)C1 [Example 298, 2-[3-(hydroxymethyl)-4-(3-{[(3R)-1-(prop-2-enoyl)pyrrolidin-3-yl]amino}-1H-pyrazolo[3,4-b]pyridin-4-yl)pyridin-2-yl]-7,7-dimethyl-3,4,7,8-tetrahydro-2H-cyclopenta[4,5]pyrrolo[1,2-a]pyrazin-1(6H)-one] | 1.51 | 3280 | 8030 |
| C=CC(=O)N1CC[C@@H](Nc2n[nH]c3nccc(-c4ccc([C@H](C)NC(=O)c5noc(C(C)(C)C)n5)c(F)c4)c23)C1 [Example 303, 5-tert-butyl-N-{(1S)-1-[2-fluoro-4-(3-{[(3R)-1-(prop-2-enoyl)pyrrolidin-3-yl]amino}-1H-pyrazolo[3,4-b]pyridin-4-yl)phenyl]ethyl}-1,2,4-oxadiazole-3-carboxamide] | 1.05 | 239 | 119 |
| C=CC(=O)N1CCC[C@@H](Nc2n[nH]c3nccc(-c4ccc(CNC(=O)c5cc(CC)on5)c(F)c4)c23)[C@H]1C [Example 304, 5-ethyl-N-{[2-fluoro-4-(3-{[(2R,3R)-2-methyl-1-(prop-2-enoyl)piperidin-3-yl]amino}-1H-pyrazolo[3,4-b]pyridin-4-yl)phenyl]methyl}-1,2-oxazole-3-carboxamide] | 0.908 | 15.9 | 4.59 |
| CC(C)(C)c1cc(C(=O)NCc2ccc(-c3ccnc4[nH]nc(N5CC[C@@H](N)C5)c34)cc2F)no1 [Example 307, (R)-N-({4-[3-(3-aminopyrrolidin-1-yl)-1H-pyrazolo[3,4-b]pyridin-4-yl]-2-fluorophenyl}methyl)-5-tert-butyl-1,2-oxazole-3-carboxamide] | 3.33 | 3210 | 1420 |
| C=CC(=O)N[C@@H]1CCN(c2n[nH]c3nccc(-c4ccc(CNC(=O)c5cc(C(C)(C)C)on5)c(F)c4)c23)C1 [Example 308, 5-tert-butyl-N-{[2-fluoro-4-(3-{(3R)-3-[(prop-2-enoyl)amino]pyrrolidin-1-yl}-1H-pyrazolo[3,4-b]pyridin-4-yl)phenyl]methyl}-1,2-oxazole-3-carboxamide] | 0.0594 | 47 | 35.6 |
| CN(C)C/C=C/C(=O)N[C@@H]1CCN(c2n[nH]c3nccc(-c4ccc(CNC(=O)c5cc(C(C)(C)C)on5)c(F)c4)c23)C1 [Example 309, 5-tert-butyl-N-[(4-{3-[(3R)-3-{[(2E)-4-(dimethylamino)but-2-enoyl]amino}pyrrolidin-1-yl]-1H-pyrazolo[3,4-b]pyridin-4-yl}-2-fluorophenyl)methyl]-1,2-oxazole-3-carboxamide] | 0.434 | 1070 | 1010 |
| C=CC(=O)N1CCC(Nc2n[nH]c3nccc(-c4ccc(CNCc5noc(C(C)(C)C)n5)c(F)c4)c23)C1 (stereo not drawn) [Example 310, 1-[3-({4-[4-({[(5-tert-butyl-1,2,4-oxadiazol-3-yl)methyl]amino}methyl)-3-fluorophenyl]-1H-pyrazolo[3,4-b]pyridin-3-yl}amino)pyrrolidin-1-yl]prop-2-en-1-one] | 106 | 3040 | 471 |
| CC(C)(C)c1nc(C(=O)NCc2ccc(-c3ccnc4[nH]nc(N[C@@H]5CC[C@H](N)C5)c34)cc2F)no1 [Example 315, N-{[4-(3-{[(1R,3S)-3-aminocyclopentyl]amino}-1H-pyrazolo[3,4-b]pyridin-4-yl)-2-fluorophenyl]methyl}-5-tert-butyl-1,2,4-oxadiazole-3-carboxamide] | 3.79 | 2250 | 2580 |
| C=CC(=O)N[C@H]1CCCC[C@@H]1Nc1n[nH]c2nccc(-c3ccc(CNC(=O)c4cc(C(C)(C)C)on4)c(F)c3)c12 [Example 318, 5-tert-butyl-N-({2-fluoro-4-[3-({(1S,2S)-2-[(prop-2-enoyl)amino]cyclohexyl}amino)-1H-pyrazolo[3,4-b]pyridin-4-yl]phenyl}methyl)-1,2-oxazole-3-carboxamide] | 26.4 | 8830 | 3030 |
| C=CC(=O)N[C@H]1CC[C@@H](Nc2n[nH]c3nccc(-c4ccc(CNC(=O)c5noc(C(C)(C)C)n5)c(F)c4)c23)C1 [Example 320, 5-tert-butyl-N-({2-fluoro-4-[3-({(1R,3S)-3-[(prop-2-enoyl)amino]cyclopentyl}amino)-1H-pyrazolo[3,4-b]pyridin-4-yl]phenyl}methyl)-1,2,4-oxadiazole-3-carboxamide] | 0.0637 | 58.5 | 86.7 |
| C=CC(=O)N[C@@H]1CC[C@H](C)N(c2n[nH]c3nccc(-c4ccc(CNC(=O)c5cc(C(C)(C)C)on5)c(F)c4)c23)C1 [Example 323, 5-tert-butyl-N-{[2-fluoro-4-(3-{(2S,5R)-2-methyl-5-[(prop-2-enoyl)amino]piperidin-1-yl}-1H-pyrazolo[3,4-b]pyridin-4-yl)phenyl]methyl}-1,2-oxazole-3-carboxamide] | 7.4 | 734 | 445 |
